Reference: patent US20150352108A1, “AMINO-PYRIMIDINE COMPOUNDS AS INHIBITORS OF TBK1 AND/OR IKK EPSILON” (Alzheimer's Institute of America, priority 2009, published 2015)
Like-named read-outs stand apart in the source and are kept apart here.

Key:
[1] = biological target: T1, TBK1 (Homo sapiens, UniProt Q9UHD2); assay: In-vitro TBK1 kinase assay ([γ33]ATP filter-plate); type: biochemical
T1 construct: His-tag; made in house; host or cells: Sf9 insect cells
T1 sequence (Q9UHD2 1-729): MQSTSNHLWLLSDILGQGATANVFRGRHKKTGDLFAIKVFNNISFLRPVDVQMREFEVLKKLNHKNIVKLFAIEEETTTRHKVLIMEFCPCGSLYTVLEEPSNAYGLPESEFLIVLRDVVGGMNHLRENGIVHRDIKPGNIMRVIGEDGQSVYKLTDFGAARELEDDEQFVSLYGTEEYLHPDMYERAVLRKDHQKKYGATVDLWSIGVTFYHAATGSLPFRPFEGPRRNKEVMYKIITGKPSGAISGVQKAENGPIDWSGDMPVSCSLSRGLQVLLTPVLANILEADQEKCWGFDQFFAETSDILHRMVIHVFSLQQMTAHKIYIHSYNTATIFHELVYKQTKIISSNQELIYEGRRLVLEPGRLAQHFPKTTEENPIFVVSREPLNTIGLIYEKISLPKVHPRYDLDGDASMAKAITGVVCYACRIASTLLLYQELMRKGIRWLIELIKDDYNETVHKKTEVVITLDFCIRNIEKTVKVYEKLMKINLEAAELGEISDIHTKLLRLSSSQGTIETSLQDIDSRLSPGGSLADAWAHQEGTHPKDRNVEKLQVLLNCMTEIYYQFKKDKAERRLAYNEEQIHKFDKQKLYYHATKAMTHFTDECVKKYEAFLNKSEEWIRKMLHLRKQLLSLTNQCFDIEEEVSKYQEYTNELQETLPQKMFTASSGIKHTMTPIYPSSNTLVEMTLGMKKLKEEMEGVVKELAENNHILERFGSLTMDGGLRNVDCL
Outline: (§1)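 His-tagged Sf9-expressed kinases at 0.1 or 0.02 μg/ml (TBK1) and 0.1 or 0.015 μg/ml (IKKε) for normal and sensitized formats, with myelin basic protein or casein substrate. ATP was at 2×Km (60 μM TBK1, 32 μM IKKε) plus 0.3 μCi [γ33]ATP. Reactions ran 30-45 min, were captured on P-81 filters, and counts were normalized to DMSO.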

[2] = biological target: T2, IKKε (Homo sapiens, UniProt Q14164); assay: In-vitro IKKε kinase assay ([γ33]ATP filter-plate); type: biochemical
T2 construct: His-tag; made in house; host or cells: Sf9 insect cells
T2 sequence (Q14164 1-716): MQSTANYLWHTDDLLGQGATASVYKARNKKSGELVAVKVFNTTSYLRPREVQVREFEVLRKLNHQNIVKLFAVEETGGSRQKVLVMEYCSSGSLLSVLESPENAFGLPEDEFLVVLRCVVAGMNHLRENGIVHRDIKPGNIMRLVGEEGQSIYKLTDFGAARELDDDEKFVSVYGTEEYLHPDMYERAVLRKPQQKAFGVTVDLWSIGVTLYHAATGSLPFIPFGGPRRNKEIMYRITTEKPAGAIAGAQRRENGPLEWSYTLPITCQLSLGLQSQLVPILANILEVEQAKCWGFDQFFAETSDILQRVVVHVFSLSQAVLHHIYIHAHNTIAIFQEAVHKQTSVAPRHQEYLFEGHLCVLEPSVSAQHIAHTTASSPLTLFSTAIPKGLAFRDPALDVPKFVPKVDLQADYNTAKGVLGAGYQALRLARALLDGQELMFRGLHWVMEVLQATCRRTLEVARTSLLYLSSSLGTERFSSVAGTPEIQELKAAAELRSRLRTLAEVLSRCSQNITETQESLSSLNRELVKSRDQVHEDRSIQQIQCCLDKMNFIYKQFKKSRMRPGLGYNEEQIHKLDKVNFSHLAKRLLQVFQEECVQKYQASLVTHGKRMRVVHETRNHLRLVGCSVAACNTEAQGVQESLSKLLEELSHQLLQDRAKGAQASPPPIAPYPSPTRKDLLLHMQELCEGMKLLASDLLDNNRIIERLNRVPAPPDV
Outline: as §1

[3] = text bins, read-out: IC50 for inhibition of the kinase activity of TBK1
[4] = text bins, read-out: IC50 for inhibition of the kinase activity of IKKε

| IC50 [1, 3] [nM] | IC50 [2, 4] [nM] | IC50 ([1]; Table 3, read-out: TBK1 IC50) [nM] | IC50 ([2]; Table 3, read-out: IKKε IC50) [nM] | SMILES |
| --- | --- | --- | --- | --- |
| < 10 | 5 to 50 |  |  | CC(C)C(=O)Nc1ccc(-c2ccnc(Nc3ccc(N4CCN(CCO)CC4)cc3)n2)cc1C#N [compound 427, N-{2-cyano-4-[2-({4-[4-(2-hydroxyethyl)piperazin-1-yl]phenyl}amino)pyrimidin-4-yl]phenyl}-2-methylpropanamide] |
| 10 to 100 | 5 to 50 |  |  | CC(C)C(=O)Nc1ccc(-c2ccnc(Nc3ccc(CN4CCOCC4)cc3)n2)cc1C#N [compound 428, N-[2-cyano-4-(2-{[4-(morpholin-4-ylmethyl)phenyl]amino}pyrimidin-4-yl)phenyl]-2-methylpropanamide] |
| 10 to 100 | 5 to 50 |  |  | CC(C)C(=O)Nc1ccc(-c2ccnc(Nc3cccc(OCCN4CCOCC4)c3)n2)cc1C#N [compound 432, N-{2-cyano-4-[2-({3-[2-(morpholin-4-yl)ethoxy]phenyl}amino)pyrimidin-4-yl]phenyl}-2-methylpropanamide] |
| < 10 | 5 to 50 |  |  | COc1ccc(Nc2nccc(-c3ccc(NC(=O)C(C)C)c(C#N)c3)n2)cc1OCCCN1CCOCC1 [compound 433, N-{2-cyano-4-[2-({4-methoxy-3-[3-(morpholin-4-yl)propoxy]phenyl}amino)pyrimidin-4-yl]phenyl}-2-methylpropanamide] |
| 10 to 100 | 5 to 50 |  |  | COc1cc(-c2ccnc(Nc3ccc(CN4CCN(CCO)CC4)cc3)n2)cc(C#N)c1OC1CCOCC1 [compound 443] |
| 10 to 100 | 5 to 50 |  |  | N#Cc1cc(-c2ccnc(Nc3ccc(N4CCOCC4)cc3)n2)ccc1OCCCN [compound 447, 2-(3-Aminopropoxy)-5-(2-{[4-(morpholin-4-yl)phenyl]amino}pyrimidin-4-yl)benzonitrile] |
| 10 to 100 | 50 to 500 |  |  | N#Cc1cc(-c2ccnc(Nc3ccc(N4CCOCC4)cc3)n2)ccc1OCC[C@H]1CCCCN1C(=O)CO [compound 448, 2-{2-[(2R)-1-(hydroxyacetyl)piperidin-2-yl]ethoxy}-5-(2-{[4-(morpholin-4-yl)phenyl]amino}pyrimidin-4-yl)benzonitrile] |
| < 10 | 5 to 50 |  |  | CC(C)C(=O)Nc1ccc(-c2ccnc(Nc3cccc(CCO)c3)n2)cc1C#N [compound 450, N-[2-cyano-4-(2-{[3-(2-hydroxyethyl)phenyl]amino}pyrimidin-4-yl)phenyl]-2-methylpropanamide] |
| < 10 | 5 to 50 |  |  | N#Cc1cc(-c2ccnc(Nc3ccc(N4CCOCC4)cc3)n2)ccc1OCC1CCNC1 (centres unmarked) [compound 456, 5-(2-{[4-(morpholin-4-yl)phenyl]amino}pyrimidin-4-yl)-2-(pyrrolidin-3-ylmethoxy) benzonitrile] |
| 10 to 100 | 5 to 50 |  |  | N#Cc1cc(-c2ccnc(Nc3ccc(N4CCOCC4)cc3)n2)ccc1OCCC1CCN(C(=O)CO)CC1 [compound 457, 2-{2-[1-(hydroxyacetyl)piperidin-4-yl]ethoxy}-5-(2-{[4-(morpholin-4-yl)phenyl]amino}pyrimidin-4-yl)benzonitrile] |
| 10 to 100 | 5 to 50 |  |  | CC(C)(COc1ccc(-c2ccnc(Nc3ccc(N4CCOCC4)cc3)n2)cc1C#N)C(=O)O [compound 460, 3-[2-cyano-4-(2-{[4-(morpholin-4-yl)phenyl]amino}pyrimidin-4-yl)phenoxy]-2,2-dimethylpropanoic acid] |
| < 10 | 5 to 50 |  |  | N#Cc1cc(-c2ccnc(Nc3ccc(N4CCOCC4)cc3)n2)ccc1OCC1CCN(C(=O)CO)C1 (centres unmarked) [compound 461, 2-{[1-(hydroxyacetyl)pyrrolidin-3-yl]methoxy}-5-(2-{[4-(morpholin-4-yl)phenyl]amino}pyrimidin-4-yl)benzonitrile] |
| 10 to 100 | 5 to 50 |  |  | CC(C)C(=O)Nc1ccc(-c2ccnc(Nc3ccc(CCN4CCOCC4)cc3)n2)cc1C#N [compound 463, N-{2-cyano-4-[2-({4-[2-(morpholin-4-yl)ethyl]phenyl}amino)pyrimidin-4-yl]phenyl}-2-methylpropanamide] |
| < 10 | 5 to 50 |  |  | CC(C)C(=O)Nc1ccc(-c2ccnc(Nc3cccc(CCN4CCOCC4)c3)n2)cc1C#N [compound 466, N-{2-cyano-4-[2-({3-[2-(morpholin-4-yl)ethyl]phenyl}amino)pyrimidin-4-yl]phenyl}-2-methylpropanamide] |
| < 10 | < 5 | 0.2 | 3.5 | COc1cc(-c2ccnc(Nc3ccc(N4CCOCC4)cc3)n2)cc(C#N)c1OC1CCOCC1 [compound 467, 3-methoxy-5-(2-{[4-(morpholin-4-yl)phenyl]amino}pyrimidin-4-yl)-2-(tetrahydro-2H-pyran-4-yloxy)benzonitrile] |
| < 10 | 5 to 50 |  |  | N#Cc1cc(-c2ccnc(Nc3ccc(N4CCOCC4)cc3)n2)ccc1O[C@@H]1CCNC1 [compound 470, 5-(2-{[4-(morpholin-4-yl)phenyl]amino}pyrimidin-4-yl)-2-[(3R)-pyrrolidin-3-yloxy]benzonitrile] |
| < 10 | < 5 | 0.3 | 1.4 | N#Cc1cc(-c2ccnc(Nc3ccc(CNC(=O)c4cnc(N)s4)cc3)n2)ccc1OC1CCOCC1 [compound 490, 2-amino-N-[4-({4-[3-cyano-4-(tetrahydro-2H-pyran-4-yloxy)phenyl]pyrimidin-2-yl}amino)benzyl]-1,3-thiazole-5-carboxamide] |
| < 10 | 5 to 50 |  |  | CC(C)(C)OC(=O)NCc1ccc(Nc2nccc(-c3ccc(OC4CCOCC4)c(C#N)c3)n2)cc1 [compound 491, tert-butyl [4-({4-[3-cyano-4-(tetrahydro-2H-pyran-4-yloxy)phenyl]pyrimidin-2-yl}amino)benzyl] carbamate] |
| < 10 | < 5 |  |  | COc1cc(Nc2nccc(-c3ccc(OC4CCOCC4)c(C#N)c3)n2)ccc1C(=O)N1CC2CC1CN2 (centres unmarked) [compound 496, 5-(2-{[4-(2,5-diazabicyclo[2.2.1]hept-2-ylcarbonyl)-3-methoxyphenyl]amino}pyrimidin-4-yl)-2-(tetrahydro-2H-pyran-4-yloxy)benzonitrile] |
| < 10 | 5 to 50 |  |  | C[C@H](O)C(=O)N1CCC(Oc2ccc(-c3ccnc(Nc4ccc(CN5CCOCC5)cc4)n3)cc2C#N)CC1 [compound 509, 2-({1-[(2S)-2-hydroxypropanoyl]piperidin-4-yl}oxy)-5-(2-{[4-(morpholin-4-ylmethyl)phenyl]amino}pyrimidin-4-yl)benzonitrile] |
| 10 to 100 | 5 to 50 |  |  | COc1ccc(Nc2nc(-c3ccc(OC4CCOCC4)c(C#N)c3)c3nc[nH]c3n2)cc1OC [compound 532, 5-{2-[(3,4-Dimethoxyphenyl)amino]-3H-purin-6-yl}-2-(tetrahydro-2H-pyran-4-yloxy)benzonitrile] |

| SMILES | IC50 [1, 3] [nM] | IC50 [2, 4] [nM] | IC50 ([1]; Table 3, read-out: TBK1 IC50) [nM] | IC50 ([2]; Table 3, read-out: IKKε IC50) [nM] |
| --- | --- | --- | --- | --- |
| CC(C)C(=O)Nc1ccc(-c2ccnc(Nc3cccc(CC(=O)N4CCN(C(C)C)CC4)c3)n2)cc1C#N [compound 423, N-(2-cyano-4-{2-[(3-{2-oxo-2-[4-(propan-2-yl)piperazin-1-yl]ethyl}phenyl)amino]pyrimidin-4-yl}phenyl)-2-methylpropanamide] | < 10 | 5 to 50 |  |  |
| CCN(CC)CCN(CC)C(=O)Cc1ccc(Nc2nccc(-c3ccc(NC(=O)C(C)C)c(C#N)c3)n2)cc1 [compound 425, N-[2-cyano-4-(2-{[4-(2-{[2-(diethylamino)ethyl] (ethyl)amino}-2-oxoethyl)phenyl]amino}pyrimidin-4-yl)phenyl]-2-methylpropanamide] | < 10 | 5 to 50 |  |  |
